Results published in patent publication US9970929B2, “Voriconazole immunoassays” (ARK Diagnostics, Inc., priority 2013, dated 2018).
One block for each molecule: values may come before it.

Assays:
antibody Ab15461(P3) = assay: homogeneous enzyme immunoassay for voriconazole (conjugate VOR-8 G6PDH, HITACHI 917), calibration and crossreactivity; assay type: binding, rabbit; details: for cross reaction with antibody Ab15461(P3), in words: summary of Tables 2 and 3
Excerpt: Antibodies obtained using any of the disclosed techniques are screened or purified not only for their ability to react with voriconazole, but for a low cross-reactivity with potential interfering substances. “Cross-reactivity” may be determined in a quantitative immunoassay by establishing a standard curve using known dilutions of the target analyte, voriconazole. The standard curve is then used to calculate the apparent concentration of the interfering substance present in various known amounts in samples assayed under similar condition. The cross-reactivity can be calculated as the apparent concentration divided by the actual concentration multiplied by 100. A certain immunoassay for determining cross-reactivity is a homogeneous enzyme immunoassay using a wild type G6PDH as described in U.S. Pat. No. 3,817,837 or mutant G6PDH engineered to contain a cysteine per subunit as described in U.S. Pat. Nos. 6,033,890, 6,090,567 and 6,455,288. Furthermore, the cross-reactivity can be determined in the same type of immunoassay in which the antibody will ultimately be used.
Rabbit polyclonal antibody Ab15461(P3) was used to measure a substantial change in enzyme activity, generate a calibration curve, and evaluate assay precision, accuracy and specificity. The antibody was added into the antibody diluent to prepare the antibody reagent. The antibody reagent consisted of antibody as prepared above, buffer, stabilizers, preservatives, and the substrates for the enzyme conjugate nicotinamide adenine dinucleotide (NAD^+) and glucose-6-phosphate. Enzyme conjugate including compound VOR-8 G6PDH was added into the conjugate diluent to prepare the enzyme conjugate reagent. The enzyme conjugate reagent included the conjugate, buffer, stabilizers and preservatives. Enzyme conjugate VOR-8 G6PDH was used with rabbit polyclonal antibody Ab15461(P3) in examples below. This technique is generally applicable to produce polyclonal antibodies to voriconazole derivatives and assess their utility.
The voriconazole antibodies and enzyme conjugates may be used in a homogeneous assay format to detect voriconazole samples. An instrument useful to set up the assay is Hitachi 917 Analyzer (Roche). Voriconazole containing sample is incubated with antibody reagent followed by the addition of the enzyme conjugate reagent. The enzyme conjugate activity decreases upon binding to the antibody. The enzyme conjugate, which is not bound to the antibody, catalyzes the oxidation of glucose 6-phosphate (G6P). The oxidation of G6P is coupled with the reduction of NAD^+ to NADH, which can be measured at 340 nm. The change in the absorbance at 340 nm can be measured spectrophotometrically. The voriconazole concentration in a sample can be measured in terms of G6PDH activity. The increase in the rate at 340 nm is due to the formation of NADH and is proportional to the enzyme conjugate activity. An assay curve is generated using voriconazole added into serum negative for voriconazole. The assay rate increases with increasing the concentration of free drug in the sample.
Voriconazole was dissolved in methanol to give a stock solution of 1000 μg/mL. Pooled human serum was aliquoted in 10 mL portions. Voriconazole stock solution was added to the aliquots of human serum in preparing a series of known concentrations of voriconazole calibrators ranging from 0 to 16 μg/mL. The assay was performed using Enzyme Conjugate Reagent NB051:79 containing conjugate VOR-8 G6PDH and Antibody Reagent NB051:79 containing antibody Ab15461(P3). Calibration curves were generated on the HITACHI 917 automated clinical chemistry analyzer, as described in Example 10 by measuring each level in duplicate.
The major metabolic pathway of voriconazole is an enzymatic oxidation of voriconazole. […] The voriconazole metabolite, N-oxide voriconazole was tested in the immunoassay for potential cross reactivity. […]

antifungal activity = details: in vitro, versus voriconazole; cited from earlier work
[1] = antifungal triazole 20 μg/mL added to voriconazole 10 μg/mL in human serum

Cross-reactivity (%) (antibody Ab15461(P3); [1]): 2.7%
cross reaction with antibody Ab15461(P3), in words (antibody Ab15461(P3)): did not significantly crossreact
Compound: OC(Cn1cncn1)(Cn1cncn1)c1ccc(F)cc1F [Fluconazole]

Cross-reactivity (%) (antibody Ab15461(P3); [1]): 1.2%
cross reaction with antibody Ab15461(P3), in words (antibody Ab15461(P3)): did not significantly crossreact
Compound: CCC(C)n1ncn(-c2ccc(N3CCN(c4ccc(OCC5COC(Cn6cncn6)(c6ccc(Cl)cc6Cl)O5)cc4)CC3)cc2)c1=O (stereo not drawn) [Itrconazole, Itraconazole]

The remaining lines, values behind:

Compound: C[C@@H](c1nc[n+]([O-])cc1F)[C@](O)(Cn1cncn1)c1ccc(F)cc1F [Vor-N-Oxide, 4-((2S,3R)-3-(2,4-difluorophenyl)-3-hydroxy-4-(1H-1,2,4-triazol-1-yl)butan-2-yl)-5-fluoropyrimidine 1-oxide]
Cross-reactivity (%) (antibody Ab15461(P3); Vor-N-Oxide 5 μg/mL added to voriconazole 10 μg/mL in human serum, 100 × (mean Test − mean Control) ÷ conc. tested): 6.7%
Cross-reactivity (%) (antibody Ab15461(P3); Vor-N-Oxide 15 μg/mL added to voriconazole 10 μg/mL in human serum): 6.7%
cross reaction with antibody Ab15461(P3), in words (antibody Ab15461(P3)): does not cross react significantly
antifungal potency, fold less potent than the parent drug (antifungal activity): 100 fold

Compound: CC[C@@H]([C@H](C)O)n1ncn(-c2ccc(N3CCN(c4ccc(OC[C@@H]5CO[C@@](Cn6cncn6)(c6ccc(F)cc6F)C5)cc4)CC3)cc2)c1=O [Posaconazole]
Cross-reactivity (%) (antibody Ab15461(P3); [1]): −2.5%
cross reaction with antibody Ab15461(P3), in words (antibody Ab15461(P3)): did not significantly crossreact

Compound: C[C@@H](c1ncncc1F)[C@](O)(Cn1cncn1)c1ccc(F)cc1F [Voriconazole, (2R,3S)-2-(2,4-difluorophenyl)-3-(5-fluoro-4-pyrimidinyl)-1-(1H-1,2,4-triazol-1-yl)-2-butanol]
Reaction Rate (mA/min) Average of Duplicates (antibody Ab15461(P3); voriconazole 1.0 μg/mL calibrator in pooled human serum): 327.2 mA/min
Reaction Rate (mA/min) Average of Duplicates (antibody Ab15461(P3); voriconazole 2.0 μg/mL calibrator in pooled human serum): 337.4 mA/min
Reaction Rate (mA/min) Average of Duplicates (antibody Ab15461(P3); voriconazole 4.0 μg/mL calibrator in pooled human serum): 349.6 mA/min
Reaction Rate (mA/min) Average of Duplicates (antibody Ab15461(P3); voriconazole 8.0 μg/mL calibrator in pooled human serum): 362.4 mA/min
Reaction Rate (mA/min) Average of Duplicates (antibody Ab15461(P3); voriconazole 16.0 μg/mL calibrator in pooled human serum): 380.4 mA/min
